Assay results published in ChEMBL document CHEMBL1139208, “An efficient and stereoselective dearylation of asarinin and sesamin tetrahydrofurofuran lignans to acuminatolide by methyltrioxorhenium/H(2)O(2) and UHP systems” (J Nat Prod, 2007).
pIC50: −log10 of the molar value.

tested on: NIH3T3; assay: Cytotoxicity against murine 3T3 cells by MTT assay; type: cell-based; conditions: Mus musculus

Going from `O=C(O)[C@H]1CO[C@@H](c2ccc3c(c2)OCO3)[C@H]1CO` to `O=C1OC[C@H]2[C@@H]1CO[C@H]2c1ccc2c(c1)OCO2`, the pIC50 falls from 5.52 to under 4.70.

First: O=C1OC[C@H]2[C@@H]1CO[C@@H]2c1ccc2c(c1)OCO2
Second: c1cc2c(cc1[C@H]1OC[C@H]3[C@@H]1CO[C@H]3c1ccc3c(c1)OCO3)OCO2 [ASARININ]
The pIC50 of the first is lower: under 4.70 for the first, 6.70 for the second. The second is the more potent here.
